Data reported in patent publication US20250228873A1, “C25 R AND S ISOMERS OF AMINOSTEROLS AND METHODS OF MAKING AND USING THE SAME” (Enterin, Inc., priority 2022, published 2025).
Where two headings read alike, the source gives them in different places.

Columns and labels:
PTPN12/PTP-PEST = molecular target: T1, PTPN12/PTP-PEST (Homo sapiens, UniProt Q05209); test: Phosphatase panel, DiFMUP fluorescence assay; assay type: biochemical
T1 construct: purchased Recation Biology Inc
T1 sequence (Q05209 1-780): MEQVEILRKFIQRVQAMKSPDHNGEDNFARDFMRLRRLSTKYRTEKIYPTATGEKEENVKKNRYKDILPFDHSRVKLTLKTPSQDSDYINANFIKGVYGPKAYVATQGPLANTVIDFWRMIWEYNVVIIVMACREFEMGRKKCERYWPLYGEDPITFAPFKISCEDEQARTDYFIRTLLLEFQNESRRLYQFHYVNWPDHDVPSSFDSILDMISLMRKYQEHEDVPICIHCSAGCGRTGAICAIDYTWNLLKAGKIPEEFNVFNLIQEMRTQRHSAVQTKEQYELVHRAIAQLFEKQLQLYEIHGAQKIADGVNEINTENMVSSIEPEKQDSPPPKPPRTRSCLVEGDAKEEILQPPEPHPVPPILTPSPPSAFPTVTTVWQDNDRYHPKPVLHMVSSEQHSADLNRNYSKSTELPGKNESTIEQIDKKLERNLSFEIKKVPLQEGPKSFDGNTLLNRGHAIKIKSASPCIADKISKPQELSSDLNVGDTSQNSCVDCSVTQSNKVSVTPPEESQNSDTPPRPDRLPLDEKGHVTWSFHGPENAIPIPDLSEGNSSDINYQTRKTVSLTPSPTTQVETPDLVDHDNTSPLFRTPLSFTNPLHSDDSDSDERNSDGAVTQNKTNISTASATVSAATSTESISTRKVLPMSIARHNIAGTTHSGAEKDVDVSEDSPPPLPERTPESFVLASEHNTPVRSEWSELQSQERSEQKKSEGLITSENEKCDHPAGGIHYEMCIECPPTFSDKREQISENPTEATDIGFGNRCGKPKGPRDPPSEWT

PTPN6/SHP1 = molecular target: T2, PTPN6/SHP1 (Homo sapiens, UniProt P29350); test: Phosphatase panel, DiFMUP fluorescence assay; assay type: biochemical
T2 construct: purchased Recation Biology Inc
T2 sequence (P29350 whole entry): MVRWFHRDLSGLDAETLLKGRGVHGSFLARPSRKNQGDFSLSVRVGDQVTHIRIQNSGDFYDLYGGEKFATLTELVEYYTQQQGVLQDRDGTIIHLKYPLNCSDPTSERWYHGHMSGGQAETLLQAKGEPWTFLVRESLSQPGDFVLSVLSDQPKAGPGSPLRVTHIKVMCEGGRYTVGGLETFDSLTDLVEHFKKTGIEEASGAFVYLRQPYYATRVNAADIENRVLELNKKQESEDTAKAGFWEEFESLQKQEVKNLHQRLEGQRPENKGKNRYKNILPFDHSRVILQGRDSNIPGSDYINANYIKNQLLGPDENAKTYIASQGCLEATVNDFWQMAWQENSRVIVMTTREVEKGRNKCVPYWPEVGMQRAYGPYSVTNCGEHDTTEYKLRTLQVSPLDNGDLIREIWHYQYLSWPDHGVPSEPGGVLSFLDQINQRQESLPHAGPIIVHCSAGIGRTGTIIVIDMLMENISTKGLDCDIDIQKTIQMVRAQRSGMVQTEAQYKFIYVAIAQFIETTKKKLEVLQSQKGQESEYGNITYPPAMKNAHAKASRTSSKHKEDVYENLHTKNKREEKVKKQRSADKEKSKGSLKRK

PP1A = molecular target: T3, PP1A (Homo sapiens, UniProt P62136); test: Phosphatase panel, DiFMUP fluorescence assay; assay type: biochemical
T3 construct: purchased Recation Biology Inc
T3 sequence (P62136 whole entry): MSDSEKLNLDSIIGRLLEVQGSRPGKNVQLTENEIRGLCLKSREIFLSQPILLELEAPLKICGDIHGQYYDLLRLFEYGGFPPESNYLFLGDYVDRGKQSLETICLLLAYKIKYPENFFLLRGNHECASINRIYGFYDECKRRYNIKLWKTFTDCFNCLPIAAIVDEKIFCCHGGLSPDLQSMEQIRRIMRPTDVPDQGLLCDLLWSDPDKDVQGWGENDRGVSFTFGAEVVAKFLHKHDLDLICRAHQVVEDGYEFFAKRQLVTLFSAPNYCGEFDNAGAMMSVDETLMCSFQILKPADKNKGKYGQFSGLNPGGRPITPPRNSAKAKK

PTPN11/SHP2-FL(E76K) = molecular target: T4, PTPN11/SHP2-FL(E76K) (Homo sapiens, UniProt Q06124, E76K); test: Phosphatase panel, DiFMUP assay, E76K mutant
T4 sequence (Q06124 2-597 isoform Q06124-1 E76K): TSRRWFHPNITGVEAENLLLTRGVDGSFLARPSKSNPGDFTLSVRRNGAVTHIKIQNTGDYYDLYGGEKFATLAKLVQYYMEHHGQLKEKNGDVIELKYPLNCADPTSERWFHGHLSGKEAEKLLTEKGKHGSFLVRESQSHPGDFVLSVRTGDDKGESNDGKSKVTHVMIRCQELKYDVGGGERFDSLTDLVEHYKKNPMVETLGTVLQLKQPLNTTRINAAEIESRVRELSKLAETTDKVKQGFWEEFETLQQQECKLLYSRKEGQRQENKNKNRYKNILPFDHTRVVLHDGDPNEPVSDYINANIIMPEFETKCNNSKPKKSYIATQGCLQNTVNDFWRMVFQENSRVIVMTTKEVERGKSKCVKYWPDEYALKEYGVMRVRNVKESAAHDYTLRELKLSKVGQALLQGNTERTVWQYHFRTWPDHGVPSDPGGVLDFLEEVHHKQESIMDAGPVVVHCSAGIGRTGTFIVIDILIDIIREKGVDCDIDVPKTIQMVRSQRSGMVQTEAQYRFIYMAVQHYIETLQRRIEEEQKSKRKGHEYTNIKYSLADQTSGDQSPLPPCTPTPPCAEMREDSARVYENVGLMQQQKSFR

PTPN1/PTP1B-CD = molecular target: T5, PTPN1/PTP1B-CD (Homo sapiens, UniProt P18031); test: Phosphatase panel, DiFMUP fluorescence assay; assay type: biochemical
T5 construct: purchased Recation Biology Inc
T5 sequence (P18031 3-277 limits assumed): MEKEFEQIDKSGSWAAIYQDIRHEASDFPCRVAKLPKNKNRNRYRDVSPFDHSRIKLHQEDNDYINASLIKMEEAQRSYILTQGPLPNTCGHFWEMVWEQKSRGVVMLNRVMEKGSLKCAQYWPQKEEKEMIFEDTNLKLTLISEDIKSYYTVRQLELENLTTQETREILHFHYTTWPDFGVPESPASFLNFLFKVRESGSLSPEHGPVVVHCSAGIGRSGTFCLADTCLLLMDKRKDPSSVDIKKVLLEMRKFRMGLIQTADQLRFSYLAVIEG

PTPN7/LC-PTP = molecular target: T6, PTPN7/LC-PTP (Homo sapiens, UniProt P35236); test: Phosphatase panel, DiFMUP fluorescence assay; assay type: biochemical
T6 construct: purchased Recation Biology Inc
T6 sequence (P35236 1-360): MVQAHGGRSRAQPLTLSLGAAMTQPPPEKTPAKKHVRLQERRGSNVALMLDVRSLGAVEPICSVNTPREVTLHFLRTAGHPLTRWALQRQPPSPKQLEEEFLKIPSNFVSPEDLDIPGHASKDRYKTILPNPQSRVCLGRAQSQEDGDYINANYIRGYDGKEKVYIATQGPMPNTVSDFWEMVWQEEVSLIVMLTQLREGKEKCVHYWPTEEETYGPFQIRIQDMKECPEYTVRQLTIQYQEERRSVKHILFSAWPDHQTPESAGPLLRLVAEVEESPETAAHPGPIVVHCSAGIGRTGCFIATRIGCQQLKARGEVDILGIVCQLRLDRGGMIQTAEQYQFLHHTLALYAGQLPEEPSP

[1] = molecular target: T7, PP2A Alpha/PP2R1A Complex (Homo sapiens, UniProt P67775); test: Phosphatase panel, DiFMUP fluorescence assay; assay type: biochemical
T7 construct: purchased Recation Biology Inc
T7 sequence (P67775 whole entry): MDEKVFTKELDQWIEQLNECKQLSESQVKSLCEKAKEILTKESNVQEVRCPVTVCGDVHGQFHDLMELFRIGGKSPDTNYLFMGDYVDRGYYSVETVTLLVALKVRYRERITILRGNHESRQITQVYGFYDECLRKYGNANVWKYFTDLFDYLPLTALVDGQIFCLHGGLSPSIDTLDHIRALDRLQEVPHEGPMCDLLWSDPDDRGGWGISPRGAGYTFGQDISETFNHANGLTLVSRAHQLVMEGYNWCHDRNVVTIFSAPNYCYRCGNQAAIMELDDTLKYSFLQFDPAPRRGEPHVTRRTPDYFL
T7 sequence (P30153 whole entry partner): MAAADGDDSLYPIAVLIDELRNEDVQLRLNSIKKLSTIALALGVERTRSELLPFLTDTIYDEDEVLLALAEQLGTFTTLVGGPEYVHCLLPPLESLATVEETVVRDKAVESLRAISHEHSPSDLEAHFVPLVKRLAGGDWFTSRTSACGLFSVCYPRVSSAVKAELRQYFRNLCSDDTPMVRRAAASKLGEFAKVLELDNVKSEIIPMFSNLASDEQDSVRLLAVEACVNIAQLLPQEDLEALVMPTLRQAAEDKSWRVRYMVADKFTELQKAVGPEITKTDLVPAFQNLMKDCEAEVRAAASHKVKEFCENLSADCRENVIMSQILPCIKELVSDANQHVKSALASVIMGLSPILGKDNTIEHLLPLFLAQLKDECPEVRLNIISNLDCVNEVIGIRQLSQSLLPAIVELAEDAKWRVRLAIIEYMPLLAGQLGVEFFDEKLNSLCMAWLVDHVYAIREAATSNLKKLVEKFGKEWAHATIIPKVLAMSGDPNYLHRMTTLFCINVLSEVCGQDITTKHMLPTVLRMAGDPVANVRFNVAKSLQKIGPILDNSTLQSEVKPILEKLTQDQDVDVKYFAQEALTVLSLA

[2] = Table 19B, read-out: inhibitory activity PTPN12/PTP-PEST
[3] = Table 19A, read-out: inhibitory activity PTPN6/SHP1
[4] = Table 19A, read-out: inhibitory activity PP1A
[5] = Table 19B, read-out: inhibitory activity PTPN1/PTP1B-CD
[6] = Table 19B, read-out: inhibitory activity PTPN7/LC-PTP
[7] = Table 19A, read-out: inhibitory activity PP2A Alpha/PP2R1A Complex
[8] = Table 5C, read-out: Compound IC50 (M) PTPN12/PTP-PEST
[9] = Table 5C, read-out: Compound IC50 (M) PTPN7/LC-PTP
[10] = Table 5B, read-out: Compound IC50 (M) PP2A Alpha/PP2R1A Complex

Structure (SMILES) | IC50 (PTPN12/PTP-PEST; [2]) | IC50 (PTPN6/SHP1; [3]) | IC50 (PP1A; [4]) | IC50 (PTPN11/SHP2-FL(E76K)) | IC50 (PTPN1/PTP1B-CD; [5]) | IC50 (PTPN7/LC-PTP; [6]) | IC50 [1, 7] | IC50 (PTPN12/PTP-PEST; [8]) | IC50 (PTPN7/LC-PTP; [9]) | IC50 [1, 10] | also measured
CC(CCC[C@@H](C)[C@H]1CCC2C3C(CC[C@@]21C)[C@@]1(C)CC[C@H](NCCCNCCCCN)C[C@@H]1C[C@H]3O)C(=O)O (single isomer, unassigned) [ENT-06] | 8.62e-07 M | > 0.0001 M | > 0.0001 M | 345 nM | 1.47e-07 M | 1.05e-06 M | > 0.0001 M | – | – | – | –
CC(CCC[C@@H](C)[C@H]1CCC2C3C(CC(O)[C@@]21C)[C@@]1(C)CC[C@H](NCCCNCCCCN)C[C@@H]1C[C@H]3O)C(=O)O (single isomer, unassigned) [ENT-05] | – | – | – | 43 nM | – | – | – | – | – | – | IC50 (PTPN12/PTP-PEST; Table 18B, read-out: inhibitory activity PTPN12/PTP-PEST): > 0.0001 M; IC50 (PTPN6/SHP1; Table 18A, read-out: inhibitory activity PTPN6/SHP1): > 0.0001 M; IC50 (PP1A; Table 18A, read-out: inhibitory activity PP1A): > 0.0001 M; IC50 (PTPN1/PTP1B-CD; Table 18B, read-out: inhibitory activity PTPN1/PTP1B-CD): 2.58e-06 M; IC50 (PTPN7/LC-PTP; Table 18B, read-out: inhibitory activity PTPN7/LC-PTP): 3.97e-06 M; IC50 ([1]; Table 18A, read-out: inhibitory activity PP2A Alpha/PP2R1A Complex): 3.8e-06 M
CC(CCC[C@@H](C)[C@H]1CCC2C3C(CC[C@@]21C)[C@@]1(C)CC[C@H](NCCCNCCCCNCCCN)C[C@@H]1C[C@H]3O)C(=O)O (single isomer, unassigned) [ENT-03] | 8.61e-07 M | > 0.0001 M | > 0.0001 M | 294 nM | 1.17e-07 M | 6.34e-07 M | > 0.0001 M | 8.61e-07 M | 6.34e-07 M | > 0.0001 M | activity at PTPN6 (PTPN6/SHP1): inactive; IC50 (PTPN6/SHP1; Table 5B, read-out: Compound IC50 (M) PTPN6/SHP1): > 0.0001 M; activity at PP1A (PP1A): inactive; IC50 (PP1A; Table 5B, read-out: Compound IC50 (M) PP1A): > 0.0001 M; IC50 (PTPN1/PTP1B-CD; Table 5C, read-out: Compound IC50 (M) PTPN1/PTP1B-CD): 1.17e-07 M; activity at PP2 Å alpha [1]: inactive
CC(C)[C@@H](CC[C@@H](C)[C@H]1CC[C@H]2[C@@H]3[C@H](O)C[C@H]4C[C@@H](NCCCNCCCCNCCCN)CC[C@]4(C)[C@H]3CC[C@]12C)OS(=O)(=O)O (single isomer, unassigned) [ENT-02 (MSI-1436), trodusquemine] | – | – | – | 292 nM | – | – | – | 1.72e-06 M | 1.65e-06 M | 5.72e-05 M | –
